In ChEMBL document CHEMBL1146693, “Design and SAR of thienopyrimidine and thienopyridine inhibitors of VEGFR-2 kinase activity” (Bioorg Med Chem Lett, 2004):
Several values for one entry are separate records, joined by “and”; a condition that tells them apart may be missing. Equal values may be shown once.

Target: Epidermal growth factor receptor (Homo sapiens, UniProt P00533)
Assay: Inhibitory activity against epidermal growth factor receptor

Sequence of Epidermal growth factor receptor (P00533 whole entry): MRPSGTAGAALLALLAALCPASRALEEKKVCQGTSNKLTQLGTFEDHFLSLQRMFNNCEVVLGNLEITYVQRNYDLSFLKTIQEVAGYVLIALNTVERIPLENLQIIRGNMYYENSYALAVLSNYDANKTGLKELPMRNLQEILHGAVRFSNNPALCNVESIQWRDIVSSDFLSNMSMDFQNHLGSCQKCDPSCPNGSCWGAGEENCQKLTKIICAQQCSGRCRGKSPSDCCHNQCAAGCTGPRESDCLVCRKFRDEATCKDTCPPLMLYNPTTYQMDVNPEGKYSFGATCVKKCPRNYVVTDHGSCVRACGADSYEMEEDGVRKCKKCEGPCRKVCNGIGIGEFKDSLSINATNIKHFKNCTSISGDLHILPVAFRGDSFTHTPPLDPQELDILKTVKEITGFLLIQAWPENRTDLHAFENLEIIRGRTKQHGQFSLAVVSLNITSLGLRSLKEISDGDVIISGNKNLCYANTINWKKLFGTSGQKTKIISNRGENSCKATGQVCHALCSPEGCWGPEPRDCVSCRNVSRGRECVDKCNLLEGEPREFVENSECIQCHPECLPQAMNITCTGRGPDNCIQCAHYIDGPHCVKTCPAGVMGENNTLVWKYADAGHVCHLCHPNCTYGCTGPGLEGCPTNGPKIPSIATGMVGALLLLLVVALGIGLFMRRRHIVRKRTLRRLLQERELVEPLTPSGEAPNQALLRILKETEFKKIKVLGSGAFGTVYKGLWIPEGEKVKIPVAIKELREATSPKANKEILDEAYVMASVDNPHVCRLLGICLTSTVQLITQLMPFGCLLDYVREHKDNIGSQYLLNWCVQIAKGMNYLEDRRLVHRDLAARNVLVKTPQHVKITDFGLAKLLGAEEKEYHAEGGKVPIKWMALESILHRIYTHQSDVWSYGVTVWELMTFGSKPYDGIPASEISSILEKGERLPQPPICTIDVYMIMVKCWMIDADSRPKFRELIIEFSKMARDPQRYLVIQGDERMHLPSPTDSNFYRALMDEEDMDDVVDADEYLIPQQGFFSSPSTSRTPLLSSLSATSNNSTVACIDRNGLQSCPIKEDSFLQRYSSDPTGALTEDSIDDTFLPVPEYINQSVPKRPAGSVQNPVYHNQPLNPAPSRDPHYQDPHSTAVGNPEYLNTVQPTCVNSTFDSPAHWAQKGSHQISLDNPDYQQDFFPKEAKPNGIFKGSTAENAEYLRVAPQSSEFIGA

Compound | IC50
CC(C)(CO)NCc1ccc(-c2cc3ncnc(Nc4ccc5[nH]ccc5c4)c3s2)cc1 | 1 nM and 8 nM
OCCNCc1ccc(-c2cc3nccc(Nc4ccc5[nH]ccc5c4)c3s2)cc1 | 2 nM
Cc1c[nH]c2ccc(Nc3ncnc4cc(-c5ccccc5)sc34)cc12 | 5 nM
c1csc(-c2cc3nccc(Nc4ccc5[nH]ccc5c4)c3s2)c1 | 1 nM
NC(=O)C1CCN(Cc2ccc(-c3cc4ncnc(Nc5ccc6[nH]ccc6c5)c4s3)cc2)CC1 | 7 nM
Cc1cc2cc(Nc3ccnc4cc(-c5ccc(CN6CCOCC6)cc5)sc34)ccc2[nH]1 | 1250 nM
c1cc(Nc2ccc3[nH]ccc3c2)c2sc(-c3ccc(CN4CCOCC4)cc3)cc2n1 | 30 nM
OCc1ccc(-c2cc3ncnc(Nc4ccc5[nH]ccc5c4)c3s2)cc1 | 1 nM
c1ccc(CCCN(c2cc3ncnc(Nc4ccc5[nH]ccc5c4)c3s2)n2ccnc2)cc1 | 5 nM and 1 nM
CC(=O)NCCNCc1ccc(-c2cc3nccc(Nc4ccc5[nH]ccc5c4)c3s2)cc1 | 2 nM
NC(=O)C1CCN(Cc2ccc(-c3cc4nccc(Nc5ccc6[nH]ccc6c5)c4s3)cc2)CC1 | 1 nM
c1nc(Nc2ccc3[nH]ccc3c2)c2sccc2n1 | 600 nM
Cc1cc2cc(Nc3ccnc4cc(-c5ccc(CNCCOCCO)cc5)sc34)ccc2[nH]1 | 657 nM
OCCCNCc1ccc(-c2cc3nccc(Nc4ccc5[nH]ccc5c4)c3s2)cc1 | 9 nM
NCc1ccc(-c2cc3ncnc(Nc4ccc5[nH]ccc5c4)c3s2)cc1 | 4 nM
c1ccc(-c2cc3ncnc(Nc4ccc5[nH]ncc5c4)c3s2)cc1 | 1600 nM
Cc1cc2cc(Nc3ccnc4cc(-c5ccc(CNCCCO)cc5)sc34)ccc2[nH]1 | 500 nM
CN(CCO)Cc1ccc(-c2cc3nccc(Nc4ccc5[nH]ccc5c4)c3s2)cc1 | 3 nM
c1ccc(NCCN(c2cc3ncnc(Nc4ccc5[nH]ccc5c4)c3s2)n2cccc2)cc1 | 1 nM
Cc1cc2cc(Nc3ccnc4cc(-c5ccc(CNCCO)cc5)sc34)ccc2[nH]1 | 1000 nM
Cc1cc2cc(Nc3ncnc4cc(-c5ccccc5)sc34)ccc2[nH]1 | 100 nM
c1cc(Nc2ccc3[nH]ccc3c2)c2sc(-c3ccc(CNCCN4CCNCC4)cc3)cc2n1 | 3 nM
NC(=O)c1ccc(Nc2ncnc3cc(-c4ccccc4)sc23)cc1 | > 1000 nM
CC(=O)NCCNCc1ccc(-c2cc3ncnc(Nc4ccc5[nH]ccc5c4)c3s2)cc1 | 5 nM
Cc1cc2cc(Nc3ccnc4cc(-c5ccc(CN(C)CCO)cc5)sc34)ccc2[nH]1 | 140 nM
